Bioavailability data for two molecules are collected here from ChEMBL document CHEMBL4261653, “PPARγ-sparing thiazolidinediones as insulin sensitizers. Design, synthesis and selection of compounds for clinical development” (Bioorg Med Chem, 2018).

As a reminder, the bioavailability is the share of a dose that reaches the circulation, judged against a reference dose that is usually intravenous. Lower therefore signals little systemic uptake.

A short description of this series: Oral bioavailability in rat. The conditions noted are these: in vivo. It counts as ADME, organism-based.

The molecule `COc1cccc(C(=O)COc2ccc(CC3SC(=O)NC3=O)cc2)c1` (configuration not stated) came in with a bioavailability of 100%.

The molecule `CCc1ccc(C(=O)COc2ccc(CC3SC(=O)NC3=O)cc2)nc1` (configuration not stated) [MITOGLITAZONE] came in with a bioavailability of 73%.
